Measurements published in US20090047282A1, “Prophylactic/Therapeutic Agent for Cancer” (priority 2005, published 2009).
Where no end group is shown, it is not given here. The star is where a group is joined. Biotin = O=C1N[C@H]2[C@H](CS[C@H]2CCCCC(=O)*)N1

Columns and labels:
human HHAT [1] = assay: HHAT activity measurement with [3H] palmitoyl CoA and biotinylated substrate peptide on Streptavidin FlashPlate; assay type: biochemical; settings: 10 μM substrate peptide, reaction 1 hour, FIG. 2
Source text: A peptide (Shh-(24-38)) having 15-mer peptide comprised of amino acids from the 24th position to the 38th position of human Shh (SEQ ID NO: 22) modified with biotin at the lysine residue at the carboxylic terminus, and a peptide (Shh-(24-45)) having 22-mer peptide comprised of amino acids from the 24th position to the 45th position of human Shh modified with biotin at the lysine residue at the carboxylic terminus, were synthesized as a substrate peptide. An HHAT activity measuring system was produced by adding 50 μl reaction buffer (10 mM Tris-HCl (pH7.4), 50 mM magnesium chloride, 2 μM [^3H] palmitoyl CoA, and 400 μg/ml of HHAT enzyme solution) to a 96-well plate coated with streptavidin and a scintillator (Streptavidin FlashPlate, PerkinElmer). The above-mentioned synthetic peptides were added to the reaction system and reacted for a predetermined period. Then, the reaction was terminated by adding 200 μl of 1% aqueous solution of Triton X-100 to the reaction solution. After the reaction, the radioactivity of the reaction solution was measured by the scintillation counter as an HHAT activity.
[^3H] palmitoyl CoA was prepared from [^3H] palmitic acid (GE Healthcare) by a method described in Methods in Enzymology, 250, 299-300, 1995. […]

human HHAT [2] = assay: Knockdown efficiency of siRNA checked with the TaqMan method (quantitative RT-PCR), human HHAT expression; assay type: cell-based; settings: HT-29 cells, 100 nM siRNA, 5th day after introduction, vs non-silencing siRNA
Procedure: (§1) […] After culturing the cells overnight, siRNA to human Shh (Ambion; SEQ ID NO: 19), siRNA to human HHAT (Ambion; SEQ ID NO: 20), or non-silencing siRNA (Dhamacon, SEQ ID NO: 21) as a control was introduced. The introduction was performed by adding a mixture of 0.4 μl of DhamaFECT4 reagent (Dhamacon) per well and 100 nM of each siRNA to the cells. The knockdown efficiency of each siRNA at this point was checked with the TaqMan method. On the 5th day after the introduction of siRNA, total RNA was extracted from the HT-29 cells using RNeasy mini kit (QIAGEN), and cDNA was synthesized from a random primer using the TaqMan Gold RT-PCR kit (Applied Biosystems). 2 μl of the synthesized cDNA, 10 μl of 2×TaqMan Universal PCR Master Mix (Applied Biosystems), 1 μl of 20×TaqMan Gene Expression Assay (Applied Biosystems) to the human Shh or HHAT, and 7 μl of distilled water were added together to a total amount of 20 μl. This was used as a reaction solution of quantificative RT-PCR.
(§2) Regarding the reaction solution, the expression of human Shh or human HHAT was quantified in the ratio to GAPDH using the ABI PRISM 7700 Sequence Detection System. As compared with the control, the gene expression was suppressed by about 75% in the case of siRNA to human Shh and by about 60% in the case of siRNA to human HHAT.

human Shh = assay: Knockdown efficiency of siRNA checked with the TaqMan method (quantitative RT-PCR), human Shh expression; assay type: cell-based; settings: HT-29 cells, 100 nM siRNA, 5th day after introduction, vs non-silencing siRNA
Procedure: as §1, §2

| Substance | HHAT activity (radioactivity of [3H]-palmitic acid added to the substrate peptide) compared with control without HHAT enzyme solution (human HHAT [1]) | also measured |
| --- | --- | --- |
| Shh-(24-38): 15-mer peptide of amino acids 24 to 38 of human Shh (SEQ ID NO: 22), biotin-modified at the carboxy-terminal lysine residue; HHAT substrate peptide (CGPGRGFGKRRHPKK(Biotin)) | conspicuous increase of the radioactivity | – |
| Shh-(24-45): 22-mer peptide of amino acids 24 to 45 of human Shh, biotin-modified at the carboxy-terminal lysine residue; HHAT substrate peptide (CGPGRGFGKRRHPKKLTPLAYK(Biotin)) | conspicuous increase of the radioactivity | – |
| siRNA to human HHAT: siRNA to human HHAT (Ambion; SEQ ID NO: 20) (GGAAUUUGAGCUGGAGACUTT; chemistry not given here) | – | suppression of gene expression of human HHAT (ratio to GAPDH) compared with the control (human HHAT [2]): about 60% |
| siRNA to human Shh: siRNA to human Shh (Ambion; SEQ ID NO: 19) (GGGAAGAUCUCCAGAAACUTT; chemistry not given here) | – | suppression of gene expression of human Shh (ratio to GAPDH) compared with the control (human Shh): about 75% |
